Experimental data as given in patent US8470812B2, “Substituted benzo-pyrimido-tetrazolo-diazepine compounds” (ArQule, Inc., priority 2009, dated 2013).

Columns and labels:
MDA-MB-231 cancer cells = test: MTS assay, cell growth inhibition; format: cell-based; conditions: MDA-MB-231 cells, 72 h incubation; test concentration not given
Protocol: (§1) Cells were maintained at 37° C., 5% CO2 in DMEM media supplemented with 1% fetal bovine serum, penicillin/streptomycin and fungizone (Invitrogen). Cells were seeded into 96-well tissue culture plates at 3000 per well and cultured at 37° C. for 18 hours. Test compounds were dissolved and diluted to 300× in DMSO then diluted 1:40 in DMEM. Cells were incubated with test compounds for 72 hours followed by incubation with tetrazolium compound (3-(4,5-dimethylthiazol-2-yl)-5-(3-carboxymethoxyphenyl)-2-(4-sulfophenyl)-2H-tetrazolium, inner salt; MTS) and the electron coupling reagent, phenazine methosulfate (PMS) for 4 hours. […] The ability of compounds to inhibit cell growth in this assay is correlated with the reduction of dehydrogenase enzyme activity found in metabolically active cells. The measurement of the absorbance of the formazan was assessed using a Victor (Perkin Elmer) microplate reader at 492 nm. The calculated IC50 value is the concentration of the test compound that causes a 50% decrease in the absorbance. Selected compounds have been tested in DLD-1 and MDA-MB-231 cancer cells.

DLD-1 cancer cells = test: MTS assay, cell growth inhibition; format: cell-based; conditions: DLD-1 cells, 72 h incubation; test concentration not given
Protocol: as §1

Structure (SMILES) | MDA-MB-231, MTS, 72 h (% Inhibition) (MDA-MB-231 cancer cells) [%] | DLD-1, MTS, 72 h (% Inhibition) (DLD-1 cancer cells) [%]
CCC(C)CNc1ncc2c(n1)Nc1ccccc1-n1nnnc1-2 (centres unmarked) [Compound 95, N-(2-methylbutyl)-9H-pyrimido[5,4-c]tetrazolo[1,5-a][1,5]benzodiazepin-11-amine] | 99 | 97
Clc1ccc(CNc2ncc3c(n2)Nc2ccccc2-n2nnnc2-3)cc1 [Compound 58, N-(4-chlorobenzyl)-9H-pyrimido[5,4-c]tetrazolo[1,5-a][1,5]benzodiazepin-11-amine] | 98 | 97
CC(C)CN(C)c1ncc2c(n1)Nc1ccccc1-n1nnnc1-2 [Compound 47, N-methyl-N-(2-methylpropyl)-9H-pyrimido[5,4-c]tetrazolo[1,5-a][1,5]benzodiazepin-11-amine] | – | 46
Fc1ccc(CN2c3ccccc3-n3nnnc3-c3cnc(N4CCNCC4)nc32)cc1F [Compound 11, 9-(3,4-difluorobenzyl)-11-piperazin-1-yl-9H-pyrimido[5,4-c]tetrazolo[1,5-a][1,5]benzodiazepine] | 97 | 97
c1ccc2c(c1)Nc1nc(NCC3CC3)ncc1-c1nnnn1-2 [Compound 9, N-(cyclopropylmethyl)-9H-pyrimido[5,4-c]tetrazolo[1,5-a][1,5]benzodiazepin-11-amine] | 92 | 98
c1ccc(CC2CCN(c3ncc4c(n3)Nc3ccccc3-n3nnnc3-4)CC2)cc1 [Compound 105, 11-(4-benzylpiperidin-1-yl)-9H-pyrimido[5,4-c]tetrazolo[1,5-a][1,5]benzodiazepine] | 56 | –
Fc1ccc(F)c(CNc2ncc3c(n2)Nc2ccccc2-n2nnnc2-3)c1 [Compound 59, N-(2,5-difluorobenzyl)-9H-pyrimido[5,4-c]tetrazolo[1,5-a][1,5]benzodiazepin-11-amine] | 71 | 97
Cc1ccc(CNc2ncc3c(n2)Nc2ccccc2-n2nnnc2-3)cc1F [Compound 46, N-(3-fluoro-4-methylbenzyl)-9H-pyrimido[5,4-c]tetrazolo[1,5-a][1,5]benzodiazepin-11-amine] | – | 69
c1csc(CNc2ncc3c(n2)Nc2ccccc2-n2nnnc2-3)c1 [Compound 81, N-(thiophen-2-ylmethyl)-9H-pyrimido[5,4-c]tetrazolo[1,5-a][1,5]benzodiazepin-11-amine] | – | 41
Cc1ccc(CCNc2ncc3c(n2)Nc2ccccc2-n2nnnc2-3)cc1 [Compound 90, N-[2-(4-methylphenyl)ethyl]-9H-pyrimido[5,4-c]tetrazolo[1,5-a][1,5]benzodiazepin-11-amine] | – | 61
COc1ccccc1CNc1ncc2c(n1)Nc1ccccc1-n1nnnc1-2 [Compound 50, N-(2-methoxybenzyl)-9H-pyrimido[5,4-c]tetrazolo[1,5-a][1,5]benzodiazepin-11-amine] | – | 54
Fc1ccc(CCNc2ncc3c(n2)Nc2ccccc2-n2nnnc2-3)cc1 [Compound 74, N-[2-(4-fluorophenyl)ethyl]-9H-pyrimido[5,4-c]tetrazolo[1,5-a][1,5]benzodiazepin-11-amine] | – | 78
Fc1ccc(CNc2ncc3c(n2)Nc2ccccc2-n2nnnc2-3)cc1F [Compound 36, N-(3,4-difluorobenzyl)-9H-pyrimido[5,4-c]tetrazolo[1,5-a][1,5]benzodiazepin-11-amine] | – | 31
c1ccc2c(c1)Nc1nc(NCCN3CCCC3)ncc1-c1nnnn1-2 [Compound 37, N-(2-pyrrolidin-1-ylethyl)-9H-pyrimido[5,4-c]tetrazolo[1,5-a][1,5]benzodiazepin-11-amine] | – | 95
c1ccc(CCNc2ncc3c(n2)Nc2ccccc2-n2nnnc2-3)cc1 [Compound 35, N-(2-phenylethyl)-9H-pyrimido[5,4-c]tetrazolo[1,5-a][1,5]benzodiazepin-11-amine] | 42 | –
Fc1cc(F)cc(CNc2ncc3c(n2)Nc2ccccc2-n2nnnc2-3)c1 [Compound 76, N-(3,5-difluorobenzyl)-9H-pyrimido[5,4-c]tetrazolo[1,5-a][1,5]benzodiazepin-11-amine] | – | 73
CC(CNc1ncc2c(n1)Nc1ccccc1-n1nnnc1-2)c1ccccc1 (centres unmarked) [Compound 44, N-(2-phenylpropyl)-9H-pyrimido[5,4-c]tetrazolo[1,5-a][1,5]benzodiazepin-11-amine] | – | 51
Cc1cccc(CNc2ncc3c(n2)Nc2ccccc2-n2nnnc2-3)c1 [Compound 83, N-(3-methylbenzyl)-9H-pyrimido[5,4-c]tetrazolo[1,5-a][1,5]benzodiazepin-11-amine] | – | 89
Fc1ccc(CNc2ncc3c(n2)Nc2ccccc2-n2nnnc2-3)cc1Cl [Compound 55, N-(3-chloro-4-fluorobenzyl)-9H-pyrimido[5,4-c]tetrazolo[1,5-a][1,5]benzodiazepin-11-amine] | – | 45
Cc1ccc(CNc2ncc3c(n2)Nc2ccccc2-n2nnnc2-3)cc1 [Compound 73, N-(4-methylbenzyl)-9H-pyrimido[5,4-c]tetrazolo[1,5-a][1,5]benzodiazepin-11-amine] | 39 | –
c1ccc2c(c1)Nc1nc(N3CCN(c4ccncc4)CC3)ncc1-c1nnnn1-2 [Compound 34, 11-(4-pyridin-4-ylpiperazin-1-yl)-9H-pyrimido[5,4-c]tetrazolo[1,5-a][1,5]benzodiazepine] | – | 97
CC1CCCCC1Nc1ncc2c(n1)Nc1ccccc1-n1nnnc1-2 (centres unmarked) [Compound 97, N-(2-methylcyclohexyl)-9H-pyrimido[5,4-c]tetrazolo[1,5-a][1,5]benzodiazepin-11-amine] | – | 39
CN1CCC(Nc2ncc3c(n2)Nc2ccccc2-n2nnnc2-3)CC1 [Compound 66, N-(1-methylpiperidin-4-yl)-9H-pyrimido[5,4-c]tetrazolo[1,5-a][1,5]benzodiazepin-11-amine] | – | 97
COc1cccc(CCNc2ncc3c(n2)Nc2ccccc2-n2nnnc2-3)c1 [Compound 84, N-[2-(3-methoxyphenyl)ethyl]-9H-pyrimido[5,4-c]tetrazolo[1,5-a][1,5]benzodiazepin-11-amine] | – | 42
Fc1ccc(CNc2ncc3c(n2)Nc2ccccc2-n2nnnc2-3)c(Cl)c1 [Compound 102, N-(2-chloro-4-fluorobenzyl)-9H-pyrimido[5,4-c]tetrazolo[1,5-a][1,5]benzodiazepin-11-amine] | – | 84
COc1ccccc1CCNc1ncc2c(n1)Nc1ccccc1-n1nnnc1-2 [Compound 69, N-[2-(2-methoxyphenyl)ethyl]-9H-pyrimido[5,4-c]tetrazolo[1,5-a][1,5]benzodiazepin-11-amine] | – | 58
Clc1ccccc1CCNc1ncc2c(n1)Nc1ccccc1-n1nnnc1-2 [Compound 89, N-[2-(2-chlorophenyl)ethyl]-9H-pyrimido[5,4-c]tetrazolo[1,5-a][1,5]benzodiazepin-11-amine] | – | 31
